For 14 compounds, IC50 results are on record in patent publication US8258151B2, “3-aminoimidazo [1,2-A] pyridine derivatives as SGLT inhibitors” (Merck Patent GmbH, priority 2006, dated 2012).

In one experiment the target is T1, SGLT1 (Homo sapiens, UniProt P13866).
T1 construct: expressed in transfected cells
T1 sequence (P13866 1-664): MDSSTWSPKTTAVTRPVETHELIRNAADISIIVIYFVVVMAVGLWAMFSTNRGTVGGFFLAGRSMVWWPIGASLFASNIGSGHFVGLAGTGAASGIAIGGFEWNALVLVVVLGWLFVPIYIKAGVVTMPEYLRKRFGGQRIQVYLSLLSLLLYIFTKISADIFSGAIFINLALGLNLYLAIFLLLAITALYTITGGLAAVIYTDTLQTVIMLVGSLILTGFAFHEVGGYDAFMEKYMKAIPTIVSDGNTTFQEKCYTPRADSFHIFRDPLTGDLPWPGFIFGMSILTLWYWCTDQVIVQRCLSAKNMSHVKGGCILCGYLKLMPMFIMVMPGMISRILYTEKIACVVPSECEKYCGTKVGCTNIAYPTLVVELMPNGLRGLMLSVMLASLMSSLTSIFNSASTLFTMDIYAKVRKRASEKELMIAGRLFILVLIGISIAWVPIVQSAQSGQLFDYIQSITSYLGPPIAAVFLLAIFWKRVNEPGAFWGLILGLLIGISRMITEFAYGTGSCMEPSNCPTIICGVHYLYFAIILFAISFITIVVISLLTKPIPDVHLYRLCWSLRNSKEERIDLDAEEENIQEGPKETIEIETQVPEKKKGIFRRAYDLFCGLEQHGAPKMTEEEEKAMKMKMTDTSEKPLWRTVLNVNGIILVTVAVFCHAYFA
The experiment can be described thus: SGLT1 activity measurement: 14C-AMG uptake in BHK cells transfected with SGLT1. Type of experiment: cell-based. As to conditions: AMG 50 μM, 37° C., 90 min. The source says: (§1) The compounds can be tested on their SGLT inhibition properties by means of BHK cells expressing SGLT1 and SGLT2. The production of the cells and the testing can be carried out as described below.
To construct the SGLT1 expression vector (KL225), the SLC5A1 gene (homologous to NM_000343) was amplified from a cDNA library using standard PCR technology and cloned over NheI/XhoI sites into pcDNA3.1 expression vector (Invitrogen) containing neomycin as a selection marker. In this vector, transcription uses the enhancer/promoter of human cytomegalovirus.
The final vector KL225 together with an additional vector containing a dihydrofolate reductase gene as a selection marker was introduced into cells. Transfection into BHK21 cells (ATCC CCL-10), cultivated in DMEM medium (GIBCO/BRL), supplemented with 10% foetal calf serum (FCS) and 20 mM glutamine, was carried out using calcium phosphate transfections according to Graham, F. L. and van der Ebb, A. J. (1973), Virology 52: 456 with 5-20 μg of uncut plasmids for 10^7 cells. Stable transfectants were selected in medium containing 1 mg/ml of G418 (GIBCO/BRL) and 20-5000 nM methotrexate as final concentration, where only cells which expressed the neomycin gene and overexpressed the dhfr gene were able to grow. After growth for 2-3 weeks, the cells were cloned (0.5 cells/well) and the clones were investigated for SGLT expression in the radioactive uptake assay. […]
(§2) A 96-well cell-based assay was developed and adapted to HTS requirements:
(§3) BHK cells (transfected with SGLT1 or SGLT2) were seeded into 96-well microtitre plates (Cultureplates, Perkin Elmer). After at least 24 h, medium was removed and the cell layer was washed with assay buffer (140 mM NaCl, 2 mM KCl, 1 mM CaCl2, 1 mM MgCl2, 10 mM HEPES, 5 mM Tris, adjusted with 1 M KOH to pH 7.4). After addition of 40 μl of assay buffer, 50 μl of AMG (50 μM for SGLT1 and 2 mM for SGLT2) in the presence or absence of compounds, the cells were incubated in a total volume of 100 μl at 37° C. for 90 min. Supernatant was removed by suction and discarded. The cells were washed and lysed by addition of 50 μl water. After 10 minutes at room temperature 200 μl Microscint 40 (Perkin Elmer) were added. The radioactivity was counted in a Topcount microplate scintillation counter (Perkin Elmer). The non-specific uptake was determined in sodium-free assay buffer (266 mM sucrose, 2 mM KCl, 1 mM CaCl2, 1 mM MgCl2, 10 mM HEPES, 5 mM Tris, adjusted with 1 M KOH to pH 7.4).

For a further experiment, the target named is T2, SGLT2 (Homo sapiens, UniProt P31639).
T2 construct: expressed in transfected cells
T2 sequence (P31639 1-672): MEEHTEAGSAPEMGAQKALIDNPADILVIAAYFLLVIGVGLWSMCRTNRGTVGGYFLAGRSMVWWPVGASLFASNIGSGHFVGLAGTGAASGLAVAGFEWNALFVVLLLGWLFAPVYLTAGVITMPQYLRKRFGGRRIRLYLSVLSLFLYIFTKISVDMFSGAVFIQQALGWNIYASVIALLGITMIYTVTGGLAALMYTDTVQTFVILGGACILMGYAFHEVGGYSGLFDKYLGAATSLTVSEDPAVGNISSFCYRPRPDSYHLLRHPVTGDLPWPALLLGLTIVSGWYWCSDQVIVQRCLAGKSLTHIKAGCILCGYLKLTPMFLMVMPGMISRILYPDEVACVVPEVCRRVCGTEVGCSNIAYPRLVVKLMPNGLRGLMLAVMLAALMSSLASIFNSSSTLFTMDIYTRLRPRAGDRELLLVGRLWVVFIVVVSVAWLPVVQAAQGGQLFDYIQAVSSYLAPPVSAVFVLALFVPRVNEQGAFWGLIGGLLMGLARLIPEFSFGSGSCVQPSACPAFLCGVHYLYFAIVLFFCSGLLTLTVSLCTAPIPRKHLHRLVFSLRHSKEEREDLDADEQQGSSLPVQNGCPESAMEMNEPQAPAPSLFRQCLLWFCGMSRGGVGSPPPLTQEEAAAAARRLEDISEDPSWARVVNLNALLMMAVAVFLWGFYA
The experiment can be described thus: SGLT2 activity measurement: 14C-AMG uptake in BHK cells transfected with SGLT2. Type of experiment: cell-based. To be noted: AMG 2 mM, 37° C., 90 min.
Description: as §1
To construct the SGLT2 expression vector (KL224), the SLC5A2 gene (homologous to NM_003041) was amplified from a cDNA library using standard PCR technology and cloned over NheI/XhoI sites into PCI-neo expression vector (Promega) containing neomycin as a selection marker. In this vector, transcription used the enhancer/promoter of human cytomegalovirus and the SV40 polyadenylation signal.
The final vector KL224 together with an additional vector containing a dihydrofolate reductase gene as a selection marker was introduced into cells. Transfection into BHK21 cells (ATCC CCL-10), cultivated in DMEM medium (GIBCO/BRL), supplemented with 10% foetal calf serum (FCS) and 20 mM glutamine, was carried out using calcium phosphate transfections according to Graham, F. L. and van der Ebb, A. J. (1973), Virology 52: 456 with 5-20 μg of uncut plasmids for 10^7 cells. Stable transfectants were selected in medium containing 1 mg/ml of G418 (GIBCO/BRL) and 20-5000 nM methotrexate as final concentration, where only cells which expressed the neomycin gene and overexpressed the dhfr gene were able to grow. After growth for 2-3 weeks, the cells were cloned (0.5 cells/well) and the clones were investigated for SGLT expression in the radioactive uptake assay.
Principally, uptake of ^14C-α-methyl-D-glucopyranoside (AMG) in, for example, Xenopus oocytes injected with the corresponding cRNA has been described (for example Wen-Sen Lee et al. (1994), J. Biol. Chem. 269, 12032-12039; Guofeng You et al. (1995), J. Biol. Chem. 270, 29365-29371).
as §2, §3

In general, IC50 refers to the point on the concentration scale where inhibition reaches its midpoint. A lower IC50 goes with greater potency. `COCCOc1cc(C)c(-c2nc3ccc(F)cn3c2Nc2c(C)cccc2C)c(OCC(N)=O)c1` [Compound A184, 2-[2-(Aminocarbonylmethoxy)-4-(2-methoxy-ethoxy)-6-methylphenyl]-3-(2,6-dimethylphenyl-amino)-6-fluoroimidazo[1,2-a]pyridine]: the results for the IC50 at SGLT1 and on SGLT2 were over 10000 nM and 10 to 1000 nM, respectively.
The matching figures for `COc1ccc(-c2nc3ccccn3c2Nc2c(C)cccc2Cl)c(OCC(N)=O)c1` [Compound A15, 2-[2-(Aminocarbonylmethoxy)-4-methoxy-phenyl]-3-(2-chloro-6-methylphenylamino)-imidazo[1,2-a]pyridine]: 1000 to 10000 nM and 10 to 1000 nM.
On the same counts, the results for `CCc1cc(OC2COC(=O)O2)cc(OCC(N)=O)c1-c1nc2ccc(F)cn2c1Nc1c(C)cccc1C` (stereo not shown) [Compound A198, 2-[2-(Aminocarbonylmethoxy)-4-(2-oxo-1,3-dioxolan-4-yloxy)-6-ethylphenyl]-3-(2,6-dimethyl-phenylamino)-6-fluoroimidazo[1,2-a]pyridine] are 1000 to 10000 nM and 10 to 1000 nM.
On the same counts, the results for `CCc1cc(O)cc(OCC(N)=O)c1-c1nc2ccc(F)cn2c1Nc1c(C)cccc1C` [Compound A102, 2-[2-(Aminocarbonylmethoxy)-6-ethyl-4-hydroxy-phenyl]-3-(2,6-dimethylphenylamino)-6-fluoro-imidazo[1,2-a]pyridine] are 1000 to 10000 nM and 10 to 1000 nM.
Turning to `CCc1cc(OC)cc(OCC(N)=O)c1-c1nc2ccc(F)cn2c1Nc1c(C)cccc1C` [Compound A185, 2-[2-(Aminocarbonylmethoxy)-4-methoxy-6-ethylphenyl]-3-(2,6-dimethylphenylamino)-6-fluoroimidazo[1,2-a]pyridine], the results for the IC50 on SGLT1 and against SGLT2 were 1000 to 10000 nM and 10 to 1000 nM, respectively.
On the same counts, the results for `Cc1cccc(C)c1Nc1c(-c2c(C)cc(OCC(N)=O)cc2OCC(N)=O)nc2ccccn12` [Compound A170, 2-[2-(Aminocarbonylmethoxy)-4-(amino-carbonylmethoxy)-6-methylphenyl]-3-(2,6-dimethylphenylamino)imidazo[1,2-a]pyridine] are 1000 to 10000 nM and 10 to 1000 nM.
The matching figures for `COc1cc(OCC(N)=O)c(-c2nc3ccc(F)cn3c2Nc2c(C)cccc2C)c(C)c1Cl` [Compound A231, 2-[2-(Aminocarbonylmethoxy)-5-chloro-4-methoxy-6-methylphenyl]-3-(2,6-dimethylphenyl-amino)-6-fluoroimidazo[1,2-a]pyridine]: 1000 to 10000 nM and 10 to 1000 nM.
Regarding `CCc1cc(OC)cc(OCC(N)=O)c1-c1nc2ccc(F)cn2c1Nc1c(C)cccc1OC` [Compound A215, 2-[2-(Aminocarbonylmethoxy)-4-methoxy-6-ethylphenyl]-3-(2-methoxy-6-methylphenyl-amino)-6-fluoroimidazo[1,2-a]pyridine], the half-maximal inhibitory concentration (IC50) against SGLT1 was over 10000 nM; at SGLT2 it was 10 to 1000 nM.
On the same counts, the results for `CCc1cc(OC)cc(OCC(N)=O)c1-c1nc2ccc(F)cn2c1Nc1c(C)cccc1C(F)(F)F` [Compound A247, 2-[2-(Aminocarbonylmethoxy)-4-methoxy-6-ethylphenyl]-3-(2-methyl-6-trifluoromethylphenyl-amino)-6-fluoroimidazo[1,2-a]pyridine] are over 10000 nM and 10 to 1000 nM.
For the compound `COc1cc(C)c(-c2nc3ccc(F)cn3c2Nc2c(Br)cccc2Br)c(OCC(N)=O)c1` [Compound A233, 2-[2-(Aminocarbonylmethoxy)-4-methoxy-6-methylphenyl]-3-(2,6-dibromophenylamino)-6-fluoroimidazo[1,2-a]pyridine], the half-maximal inhibitory concentration (IC50) on SGLT1 was over 10000 nM; at SGLT2, 10 to 1000 nM.
The matching figures for `CCOc1cc(CC)c(-c2nc3ccc(F)cn3c2Nc2c(C)cccc2C)c(OCC(N)=O)c1` [Compound A196, 2-[2-(Aminocarbonylmethoxy)-4-ethoxy-6-ethyl-phenyl]-3-(2,6-dimethylphenylamino)-6-fluoro-imidazo[1,2-a]pyridine]: over 10000 nM and 10 to 1000 nM.
On the same counts, the results for `CCc1cc(OC)cc(OCC(N)=O)c1-c1nc2ccc(F)cn2c1Nc1c(C)cccc1Cl` [Compound A257, 2-[2-(Aminocarbonylmethoxy)-4-methoxy-6-ethylphenyl]-3-(2-chloro-6-methylphenylamino)-6-fluoroimidazo[1,2-a]pyridine] are 1000 to 10000 nM and 10 to 1000 nM.
On the same counts, the results for `CCc1cc(OS(=O)(=O)N(C)C)cc(OCC(N)=O)c1-c1nc2ccc(F)cn2c1Nc1c(C)cccc1C` [Compound A228, 2-[2-(Aminocarbonylmethoxy)-4-dimethyl-sulfamoyloxy-6-ethylphenyl]-3-(2,6-dimethyl-phenylamino)-6-fluoroimidazo[1,2-a]pyridine] are over 10000 nM and 10 to 1000 nM.
Take `CCc1cc(OC)cc(OCC(N)=O)c1-c1nc2ccccn2c1Nc1c(C)cc(F)cc1C` [Compound A203, 2-[2-(Aminocarbonylmethoxy)-4-methoxy-6-ethylphenyl]-3-(2,6-dimethyl-4-fluorophenyl-amino)imidazo[1,2-a]pyridine]: the IC50 lay in the range of 1000 to 10000 nM against SGLT1 and 10 to 1000 nM against SGLT2.
